From ChEMBL document CHEMBL5291721, “A preclinical secondary pharmacology resource illuminates target-adverse drug reaction associations of marketed drugs” (Nat Commun, 2023)

What was measured:
[1] = biological target: T1, 5-hydroxytryptamine receptor 1A (Homo sapiens, UniProt P08908)
T1 sequence (P08908 whole entry): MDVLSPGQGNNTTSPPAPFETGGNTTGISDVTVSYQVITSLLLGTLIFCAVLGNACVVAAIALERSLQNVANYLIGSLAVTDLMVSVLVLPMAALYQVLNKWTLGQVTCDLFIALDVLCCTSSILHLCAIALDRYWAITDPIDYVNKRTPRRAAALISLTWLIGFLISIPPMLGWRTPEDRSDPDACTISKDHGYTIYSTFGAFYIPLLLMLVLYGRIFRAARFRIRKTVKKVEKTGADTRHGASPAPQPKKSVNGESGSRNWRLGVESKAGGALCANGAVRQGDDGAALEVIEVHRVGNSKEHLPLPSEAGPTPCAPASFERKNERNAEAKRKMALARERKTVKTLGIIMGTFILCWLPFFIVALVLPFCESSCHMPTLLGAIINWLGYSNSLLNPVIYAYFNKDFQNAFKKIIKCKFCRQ

[2] = biological target: Histamine H1 receptor (Homo sapiens, UniProt P35367)
Sequence of Histamine H1 receptor (P35367 whole entry): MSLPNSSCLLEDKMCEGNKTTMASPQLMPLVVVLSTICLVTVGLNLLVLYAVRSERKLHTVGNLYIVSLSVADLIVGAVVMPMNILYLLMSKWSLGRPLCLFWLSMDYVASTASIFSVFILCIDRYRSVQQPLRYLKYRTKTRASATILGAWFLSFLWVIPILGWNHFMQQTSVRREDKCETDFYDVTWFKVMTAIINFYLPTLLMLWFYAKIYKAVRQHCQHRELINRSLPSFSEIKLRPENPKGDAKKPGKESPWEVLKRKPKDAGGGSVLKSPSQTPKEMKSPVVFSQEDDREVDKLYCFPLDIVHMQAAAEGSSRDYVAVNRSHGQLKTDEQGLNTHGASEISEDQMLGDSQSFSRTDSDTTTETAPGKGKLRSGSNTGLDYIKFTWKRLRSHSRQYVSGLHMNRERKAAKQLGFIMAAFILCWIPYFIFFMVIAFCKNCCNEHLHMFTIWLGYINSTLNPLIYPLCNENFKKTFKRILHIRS

[3] = biological target: Sodium-dependent serotonin transporter (Homo sapiens, UniProt P31645)
Sequence of Sodium-dependent serotonin transporter (P31645 whole entry): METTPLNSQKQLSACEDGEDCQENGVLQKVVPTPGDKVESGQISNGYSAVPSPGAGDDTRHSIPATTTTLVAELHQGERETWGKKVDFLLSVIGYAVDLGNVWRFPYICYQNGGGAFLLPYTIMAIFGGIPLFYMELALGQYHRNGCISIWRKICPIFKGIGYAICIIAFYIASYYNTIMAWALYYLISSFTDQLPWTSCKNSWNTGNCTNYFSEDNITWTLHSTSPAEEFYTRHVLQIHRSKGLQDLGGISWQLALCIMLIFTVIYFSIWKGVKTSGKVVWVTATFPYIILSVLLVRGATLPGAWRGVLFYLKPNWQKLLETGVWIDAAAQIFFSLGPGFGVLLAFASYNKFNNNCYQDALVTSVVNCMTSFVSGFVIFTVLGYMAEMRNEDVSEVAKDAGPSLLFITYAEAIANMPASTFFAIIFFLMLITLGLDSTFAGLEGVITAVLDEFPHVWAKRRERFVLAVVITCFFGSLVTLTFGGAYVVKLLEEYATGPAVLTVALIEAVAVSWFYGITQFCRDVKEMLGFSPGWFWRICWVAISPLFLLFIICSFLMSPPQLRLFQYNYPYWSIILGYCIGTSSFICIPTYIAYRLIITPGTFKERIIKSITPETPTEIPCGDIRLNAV

[4] = biological target: T2, Androgen receptor (Rattus norvegicus, UniProt P15207)
T2 sequence (P15207 whole entry): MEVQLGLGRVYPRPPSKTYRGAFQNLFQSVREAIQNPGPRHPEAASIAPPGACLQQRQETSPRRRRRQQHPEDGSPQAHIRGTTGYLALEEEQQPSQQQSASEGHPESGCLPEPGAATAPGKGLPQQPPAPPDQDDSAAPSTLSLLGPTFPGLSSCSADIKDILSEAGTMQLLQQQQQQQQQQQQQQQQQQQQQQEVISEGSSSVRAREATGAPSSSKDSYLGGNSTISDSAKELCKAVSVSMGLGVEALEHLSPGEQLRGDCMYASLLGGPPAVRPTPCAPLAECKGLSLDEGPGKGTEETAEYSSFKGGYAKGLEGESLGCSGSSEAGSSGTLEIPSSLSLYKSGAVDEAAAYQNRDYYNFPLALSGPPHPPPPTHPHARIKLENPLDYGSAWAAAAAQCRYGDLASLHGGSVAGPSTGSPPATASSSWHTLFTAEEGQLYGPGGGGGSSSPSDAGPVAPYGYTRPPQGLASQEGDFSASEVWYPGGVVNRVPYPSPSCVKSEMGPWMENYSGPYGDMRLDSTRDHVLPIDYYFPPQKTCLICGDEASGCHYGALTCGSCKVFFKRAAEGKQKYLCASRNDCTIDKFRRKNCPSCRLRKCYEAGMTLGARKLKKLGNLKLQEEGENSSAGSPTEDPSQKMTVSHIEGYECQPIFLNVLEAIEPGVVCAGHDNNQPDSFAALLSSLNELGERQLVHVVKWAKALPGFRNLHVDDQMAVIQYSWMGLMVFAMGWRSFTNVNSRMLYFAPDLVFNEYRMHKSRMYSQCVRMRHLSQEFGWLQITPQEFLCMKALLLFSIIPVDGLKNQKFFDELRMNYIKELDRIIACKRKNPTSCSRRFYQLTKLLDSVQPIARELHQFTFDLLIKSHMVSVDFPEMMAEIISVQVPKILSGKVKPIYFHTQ

[5] = biological target: T2, Androgen receptor; type: functional
[6] = biological target: T2, Androgen receptor; type: functional; remark: listed apart in the source
[7] = biological target: Gamma-aminobutyric acid receptor subunit alpha-1/alpha-2/beta-2/gamma-2 (Homo sapiens, UniProt P14867+P18507+P47869+P47870); type: functional, cell-based
Sequence of Gamma-aminobutyric acid receptor subunit alpha-1/alpha-2/beta-2/gamma-2 (P14867 whole entry): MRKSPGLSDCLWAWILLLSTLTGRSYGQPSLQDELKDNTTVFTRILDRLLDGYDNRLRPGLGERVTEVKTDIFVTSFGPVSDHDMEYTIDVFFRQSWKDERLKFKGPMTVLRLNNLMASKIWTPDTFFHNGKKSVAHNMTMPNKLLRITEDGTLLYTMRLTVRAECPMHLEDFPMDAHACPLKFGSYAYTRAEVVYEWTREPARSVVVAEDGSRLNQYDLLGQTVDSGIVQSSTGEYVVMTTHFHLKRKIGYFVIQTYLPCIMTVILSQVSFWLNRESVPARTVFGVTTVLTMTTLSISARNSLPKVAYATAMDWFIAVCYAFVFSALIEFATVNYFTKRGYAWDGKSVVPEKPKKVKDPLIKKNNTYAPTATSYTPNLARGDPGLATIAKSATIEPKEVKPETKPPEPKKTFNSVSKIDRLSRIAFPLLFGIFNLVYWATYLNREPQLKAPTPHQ
Sequence of Gamma-aminobutyric acid receptor subunit alpha-1/alpha-2/beta-2/gamma-2 (P47870 whole entry): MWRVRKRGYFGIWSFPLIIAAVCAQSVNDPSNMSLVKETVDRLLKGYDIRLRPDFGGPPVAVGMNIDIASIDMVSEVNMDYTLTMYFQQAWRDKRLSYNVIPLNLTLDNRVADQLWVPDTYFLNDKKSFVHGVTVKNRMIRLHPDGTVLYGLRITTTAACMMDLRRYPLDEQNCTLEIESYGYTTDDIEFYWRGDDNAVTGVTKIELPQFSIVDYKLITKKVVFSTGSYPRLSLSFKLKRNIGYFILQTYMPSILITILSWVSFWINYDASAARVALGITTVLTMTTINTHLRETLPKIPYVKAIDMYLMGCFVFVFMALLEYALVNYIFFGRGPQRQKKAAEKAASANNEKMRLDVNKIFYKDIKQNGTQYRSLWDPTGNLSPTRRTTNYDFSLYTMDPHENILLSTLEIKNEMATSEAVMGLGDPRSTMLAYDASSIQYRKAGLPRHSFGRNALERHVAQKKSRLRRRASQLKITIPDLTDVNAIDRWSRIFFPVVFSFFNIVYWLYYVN
Sequence of Gamma-aminobutyric acid receptor subunit alpha-1/alpha-2/beta-2/gamma-2 (P18507 whole entry): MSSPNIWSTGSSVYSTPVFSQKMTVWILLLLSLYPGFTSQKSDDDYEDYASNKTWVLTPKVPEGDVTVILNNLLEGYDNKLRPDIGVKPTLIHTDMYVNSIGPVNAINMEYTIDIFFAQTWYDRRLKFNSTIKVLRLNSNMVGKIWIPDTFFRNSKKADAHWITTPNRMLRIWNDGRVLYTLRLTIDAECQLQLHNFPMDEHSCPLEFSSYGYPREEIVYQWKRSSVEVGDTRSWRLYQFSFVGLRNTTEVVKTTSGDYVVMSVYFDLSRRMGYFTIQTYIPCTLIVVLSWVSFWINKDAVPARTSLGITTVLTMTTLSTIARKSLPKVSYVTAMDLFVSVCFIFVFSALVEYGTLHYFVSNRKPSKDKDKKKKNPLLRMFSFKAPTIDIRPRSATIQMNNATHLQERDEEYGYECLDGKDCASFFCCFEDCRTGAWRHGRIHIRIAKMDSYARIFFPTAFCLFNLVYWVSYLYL
Sequence of Gamma-aminobutyric acid receptor subunit alpha-1/alpha-2/beta-2/gamma-2 (P47869 whole entry): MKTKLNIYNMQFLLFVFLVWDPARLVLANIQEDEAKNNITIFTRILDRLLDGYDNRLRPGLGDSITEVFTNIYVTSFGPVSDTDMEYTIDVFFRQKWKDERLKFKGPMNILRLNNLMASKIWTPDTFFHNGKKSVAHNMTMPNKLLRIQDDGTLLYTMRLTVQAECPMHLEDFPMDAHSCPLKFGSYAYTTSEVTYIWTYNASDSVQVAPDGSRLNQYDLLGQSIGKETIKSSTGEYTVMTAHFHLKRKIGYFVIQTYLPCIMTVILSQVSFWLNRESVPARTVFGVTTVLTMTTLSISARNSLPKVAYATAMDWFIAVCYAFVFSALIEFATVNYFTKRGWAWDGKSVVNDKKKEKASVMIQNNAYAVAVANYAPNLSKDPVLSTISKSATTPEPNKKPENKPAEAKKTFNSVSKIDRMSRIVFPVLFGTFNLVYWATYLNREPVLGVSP

[8] = biological target: Histamine H2 receptor (Homo sapiens, UniProt P25021)
Sequence of Histamine H2 receptor (P25021 whole entry): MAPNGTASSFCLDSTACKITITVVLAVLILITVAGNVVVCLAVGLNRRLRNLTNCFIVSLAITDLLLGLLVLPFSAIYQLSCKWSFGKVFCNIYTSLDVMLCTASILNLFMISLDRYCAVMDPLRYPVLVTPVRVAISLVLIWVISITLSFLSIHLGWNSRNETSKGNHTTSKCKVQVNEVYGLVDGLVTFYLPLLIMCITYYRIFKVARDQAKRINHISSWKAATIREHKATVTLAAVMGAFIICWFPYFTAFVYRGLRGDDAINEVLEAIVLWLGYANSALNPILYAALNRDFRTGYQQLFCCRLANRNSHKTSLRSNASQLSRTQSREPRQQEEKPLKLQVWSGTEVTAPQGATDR

[9] = biological target: Voltage-dependent N-type calcium channel subunit alpha-1B (Rattus norvegicus, UniProt Q02294); type: functional
[10] = biological target: T3, Alpha-2A adrenergic receptor (Homo sapiens, UniProt P08913)
T3 sequence (P08913 whole entry): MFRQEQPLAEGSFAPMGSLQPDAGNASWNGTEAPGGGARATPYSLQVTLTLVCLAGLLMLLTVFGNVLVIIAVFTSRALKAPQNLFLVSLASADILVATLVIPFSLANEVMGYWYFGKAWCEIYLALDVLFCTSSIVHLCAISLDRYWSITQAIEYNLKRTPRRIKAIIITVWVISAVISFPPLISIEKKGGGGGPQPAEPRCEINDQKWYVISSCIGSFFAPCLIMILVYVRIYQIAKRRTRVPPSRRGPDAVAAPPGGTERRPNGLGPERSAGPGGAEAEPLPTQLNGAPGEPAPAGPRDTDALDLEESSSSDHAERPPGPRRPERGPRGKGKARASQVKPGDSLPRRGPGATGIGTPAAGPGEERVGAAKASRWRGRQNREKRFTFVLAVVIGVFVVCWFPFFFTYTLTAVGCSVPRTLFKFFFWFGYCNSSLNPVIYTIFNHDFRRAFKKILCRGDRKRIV
Also: assay procedure not described here.

## Cc1nnc2n1-c1ccc(Cl)cc1C(c1ccccc1Cl)=NC2 [TRIAZOLAM]
[1]
  AC50: > 10 µM
[2]
  AC50: > 10 µM
[3]
  AC50: > 30 µM

## COc1ccc(CCNCC(O)COc2cccc(C)c2)cc1OC (stereo not drawn) [BEVANTOLOL]
[1]
  AC50: 1.56 µM
[2]
  AC50: > 10 µM
[3]
  AC50: 3 µM
[4]
  AC50: > 10 µM

## CC1(C)CCC(CN2CCN(c3ccc(C(=O)NS(=O)(=O)c4ccc(NCC5CCOCC5)c([N+](=O)[O-])c4)c(Oc4cnc5[nH]ccc5c4)c3)CC2)=C(c2ccc(Cl)cc2)C1 [VENETOCLAX]
[5]
  AC50: > 30 µM
[2]
  AC50: > 30 µM
[3]
  AC50: > 30 µM

## O=C1C(O)=C([C@H]2CC[C@H](c3ccc(Cl)cc3)CC2)C(=O)c2ccccc21 [ATOVAQUONE]
[6]
  AC50: > 30 µM
[5]
  AC50: > 30 µM
[2]
  AC50: > 30 µM
[3]
  AC50: > 30 µM

## COc1ccc2c3c1O[C@H]1[C@@H](O)CC[C@H]4[C@@H](C2)N(C)CC[C@@]341 [DIHYDROCODEINE]
[7]
  AC50: > 30 µM
[2]
  AC50: > 30 µM

## Fc1ccc(C(c2ccccc2)(c2ccccc2F)n2ccnc2)cc1 (stereo not drawn) [FLUTRIMAZOLE]
[6]
  AC50: > 30 µM
[5]
  AC50: > 30 µM
[2]
  AC50: > 30 µM
[3]
  AC50: > 30 µM

## CC/C(=C(\c1ccccc1)c1ccc(OCCN(C)C)cc1)c1ccccc1 [TAMOXIFEN]
[8]
  AC50: 1.75 µM
[9]
  AC50: > 10 µM
[1]
  AC50: > 10 µM
[10]
  AC50: > 10 µM

## C[C@H]1COc2c(C3(N)CC3)c(F)cc3c(=O)c(C(=O)O)cn1c23 [PAZUFLOXACIN]
[2]
  AC50: > 10 µM
[3]
  AC50: > 10 µM

## CC(CC1c2ccccc2CCc2ccccc21)CN(C)C (stereo not drawn) [BUTRIPTYLINE]
[7]
  AC50: > 30 µM
[2]
  AC50: 0.015 µM

## NC(=O)OCC(COC(N)=O)c1ccccc1 [FELBAMATE]
[2]
  AC50: > 10 µM
[3]
  AC50: > 10 µM
[4]
  AC50: > 10 µM

## NC(=O)CN1CC(O)CC1=O (stereo not drawn) [OXIRACETAM]
[7]
  AC50: > 30 µM
[6]
  AC50: > 30 µM
[5]
  AC50: > 30 µM
[2]
  AC50: > 30 µM
[3]
  AC50: > 30 µM

## Cc1cc(C(C)(C)C)c(O)c(C)c1CC1=NCCN1 [OXYMETAZOLINE]
[5]
  AC50: > 30 µM

## Clc1ccccc1C(c1ccccc1)(c1ccccc1)n1ccnc1 [CLOTRIMAZOLE]
[8]
  AC50: 17.4 µM
[9]
  AC50: > 10 µM
[1]
  AC50: > 10 µM

## C[C@@H]1O[C@@H](O[C@@H]2C=C3CC[C@@H]4[C@H](CC[C@]5(C)[C@@H](c6ccc(=O)oc6)CC[C@]45O)[C@@]3(C)CC2)[C@H](O)[C@H](O)[C@H]1O [PROSCILLARIDIN]
[6]
  AC50: > 30 µM
[5]
  AC50: > 30 µM

## COc1cccc(C2(O)CCCCC2CN(C)C)c1 (stereo not drawn) [TRAMADOL]
[8]
  AC50: > 10 µM
[9]
  AC50: > 10 µM
[10]
  AC50: > 10 µM
[4]
  AC50: > 30 µM

## Cc1c(OCC(F)(F)F)ccnc1C[S+]([O-])c1nc2ccccc2[nH]1 (stereo not drawn) [LANSOPRAZOLE]
[8]
  AC50: 8.52 µM
[9]
  AC50: > 10 µM
[1]
  AC50: > 10 µM
[10]
  AC50: > 10 µM

## CC(C)(C)NCC(O)COc1cccc2c1CCC(=O)N2 (stereo not drawn) [CARTEOLOL]
[2]
  AC50: > 10 µM
[3]
  AC50: > 10 µM
[4]
  AC50: > 10 µM
